Data as given in PubChem BioAssay AID1259407 (Chemical Carcinogenesis Research Information System (CCRIS), 2018).
Activity calls are given as the source filed them. No rule for the calls is given here.

System: CCRIS mutagenicity, Ames/micronucleus/aberration tests
Experiment: CCRIS mutagenicity studies
[1] = Test System: AMES SALMONELLA TYPHIMURIUM, Strain/Indicator: TA98, Metabolic Activation: HAMSTER, LIVER, S-9, AROCLOR 1254 (10%), Method: PREINCUBATION
[2] = Test System: AMES SALMONELLA TYPHIMURIUM, Strain/Indicator: TA98, Metabolic Activation: NONE, Method: PREINCUBATION
[3] = Test System: AMES SALMONELLA TYPHIMURIUM, Strain/Indicator: TA98, Metabolic Activation: RAT, LIVER, S-9, AROCLOR 1254 (10%), Method: PREINCUBATION
[4] = Test System: AMES SALMONELLA TYPHIMURIUM, Strain/Indicator: TA100, Metabolic Activation: HAMSTER, LIVER, S-9, AROCLOR 1254 (10%), Method: PREINCUBATION
[5] = Test System: AMES SALMONELLA TYPHIMURIUM, Strain/Indicator: TA100, Metabolic Activation: NONE, Method: PREINCUBATION
[6] = Test System: AMES SALMONELLA TYPHIMURIUM, Strain/Indicator: TA100, Metabolic Activation: RAT, LIVER, S-9, AROCLOR 1254 (10%), Method: PREINCUBATION
[7] = Test System: AMES SALMONELLA TYPHIMURIUM, Strain/Indicator: TA1535, Metabolic Activation: HAMSTER, LIVER, S-9, AROCLOR 1254 (10%), Method: PREINCUBATION
[8] = Test System: AMES SALMONELLA TYPHIMURIUM, Strain/Indicator: TA1535, Metabolic Activation: NONE, Method: PREINCUBATION
[9] = Test System: AMES SALMONELLA TYPHIMURIUM, Strain/Indicator: TA1535, Metabolic Activation: RAT, LIVER, S-9, AROCLOR 1254 (10%), Method: PREINCUBATION

Measured: mutagenic call

CC(C)CN(C(=O)CCCl)c1snc2ccccc12
inactive: Test System: AMES SALMONELLA TYPHIMURIUM, Strain/Indicator: TA98, Metabolic Activation: NONE, Method: STANDARD PLATE inactive; negative | Test System: AMES SALMONELLA TYPHIMURIUM, Strain/Indicator: TA98, Metabolic Activation: S-9, Method: STANDARD PLATE inactive; negative | Test System: AMES SALMONELLA TYPHIMURIUM, Strain/Indicator: TA100, Metabolic Activation: NONE, Method: STANDARD PLATE inactive; negative | Test System: AMES SALMONELLA TYPHIMURIUM, Strain/Indicator: TA100, Metabolic Activation: S-9, Method: STANDARD PLATE inactive; negative | Test System: AMES SALMONELLA TYPHIMURIUM, Strain/Indicator: TA1535, Metabolic Activation: NONE, Method: STANDARD PLATE inactive; negative | Test System: AMES SALMONELLA TYPHIMURIUM, Strain/Indicator: TA1535, Metabolic Activation: S-9, Method: STANDARD PLATE inactive; negative | Test System: AMES SALMONELLA TYPHIMURIUM, Strain/Indicator: TA1537, Metabolic Activation: NONE, Method: STANDARD PLATE inactive; negative | Test System: AMES SALMONELLA TYPHIMURIUM, Strain/Indicator: TA1537, Metabolic Activation: S-9, Method: STANDARD PLATE inactive; negative

O=C=Nc1ccc(Cc2ccc(N=C=O)cc2)cc1
inactive: [1] inactive; negative | [2] inactive; negative | [3] inactive; negative | Test System: AMES SALMONELLA TYPHIMURIUM, Strain/Indicator: TA98, Metabolic Activation: RAT, LIVER, S-9, KC 500, Method: PREINCUBATION inactive; negative | [4] inactive; negative | [5] inactive; negative | [6] inactive; negative | [7] inactive; negative | [8] inactive; negative | [9] inactive; negative | Test System: AMES SALMONELLA TYPHIMURIUM, Strain/Indicator: TA1535, Metabolic Activation: RAT, LIVER, S-9, KC 500, Method: PREINCUBATION inactive; negative | Test System: AMES SALMONELLA TYPHIMURIUM, Strain/Indicator: TA1537, Metabolic Activation: HAMSTER, LIVER, S-9, AROCLOR 1254 (10%), Method: PREINCUBATION inactive; negative | Test System: AMES SALMONELLA TYPHIMURIUM, Strain/Indicator: TA1537, Metabolic Activation: NONE, Method: PREINCUBATION inactive; negative | Test System: AMES SALMONELLA TYPHIMURIUM, Strain/Indicator: TA1537, Metabolic Activation: RAT, LIVER, S-9, AROCLOR 1254 (10%), Method: PREINCUBATION inactive; negative | Test System: AMES SALMONELLA TYPHIMURIUM, Strain/Indicator: TA1537, Metabolic Activation: RAT, LIVER, S-9, KC 500, Method: PREINCUBATION inactive; negative | Test System: AMES SALMONELLA TYPHIMURIUM, Strain/Indicator: TA1538, Metabolic Activation: NONE, Method: PREINCUBATION inactive; negative | Test System: AMES SALMONELLA TYPHIMURIUM, Strain/Indicator: TA1538, Metabolic Activation: RAT, LIVER, S-9, KC 500, Method: PREINCUBATION inactive; negative | Test System: E. COLI, Strain/Indicator: WP2 UVRA, Metabolic Activation: NONE, Method: PREINCUBATION inactive; negative | Test System: E. COLI, Strain/Indicator: WP2 UVRA, Metabolic Activation: RAT, LIVER, S-9, KC 500, Method: PREINCUBATION inactive; negative
active: Test System: AMES SALMONELLA TYPHIMURIUM, Strain/Indicator: TA100, Metabolic Activation: RAT, LIVER, S-9, KC 500, Method: PREINCUBATION active; positive

CC1CCCC1
inactive: Test System: AMES SALMONELLA TYPHIMURIUM, Strain/Indicator: TA97, Metabolic Activation: HAMSTER, LIVER, S-9, AROCLOR 1254 (10%), Method: PREINCUBATION inactive; negative | Test System: AMES SALMONELLA TYPHIMURIUM, Strain/Indicator: TA97, Metabolic Activation: HAMSTER, LIVER, S-9, AROCLOR 1254 (30%), Method: PREINCUBATION inactive; negative | Test System: AMES SALMONELLA TYPHIMURIUM, Strain/Indicator: TA97, Metabolic Activation: NONE, Method: PREINCUBATION inactive; negative | Test System: AMES SALMONELLA TYPHIMURIUM, Strain/Indicator: TA97, Metabolic Activation: RAT, LIVER, S-9, AROCLOR 1254 (10%), Method: PREINCUBATION inactive; negative | Test System: AMES SALMONELLA TYPHIMURIUM, Strain/Indicator: TA97, Metabolic Activation: RAT, LIVER, S-9, AROCLOR 1254 (30%), Method: PREINCUBATION inactive; negative | [1] inactive; negative | Test System: AMES SALMONELLA TYPHIMURIUM, Strain/Indicator: TA98, Metabolic Activation: HAMSTER, LIVER, S-9, AROCLOR 1254 (30%), Method: PREINCUBATION inactive; negative | [2] inactive; negative | [3] inactive; negative | Test System: AMES SALMONELLA TYPHIMURIUM, Strain/Indicator: TA98, Metabolic Activation: RAT, LIVER, S-9, AROCLOR 1254 (30%), Method: PREINCUBATION inactive; negative | [4] inactive; negative | Test System: AMES SALMONELLA TYPHIMURIUM, Strain/Indicator: TA100, Metabolic Activation: HAMSTER, LIVER, S-9, AROCLOR 1254 (30%), Method: PREINCUBATION inactive; negative | [5] inactive; negative | [6] inactive; negative | Test System: AMES SALMONELLA TYPHIMURIUM, Strain/Indicator: TA100, Metabolic Activation: RAT, LIVER, S-9, AROCLOR 1254 (30%), Method: PREINCUBATION inactive; negative | [7] inactive; negative | Test System: AMES SALMONELLA TYPHIMURIUM, Strain/Indicator: TA1535, Metabolic Activation: HAMSTER, LIVER, S-9, AROCLOR 1254 (30%), Method: PREINCUBATION inactive; negative | [8] inactive; negative | [9] inactive; negative | Test System: AMES SALMONELLA TYPHIMURIUM, Strain/Indicator: TA1535, Metabolic Activation: RAT, LIVER, S-9, AROCLOR 1254 (30%), Method: PREINCUBATION inactive; negative

Cc1ccc([N+](=O)[O-])cc1N=[N+]([O-])c1cc([N+](=O)[O-])ccc1C
inactive: Test System: AMES SALMONELLA TYPHIMURIUM, Strain/Indicator: TA98, Metabolic Activation: NONE, Method: SUSPENSION/PLATE inactive; negative | Test System: AMES SALMONELLA TYPHIMURIUM, Strain/Indicator: TA98, Metabolic Activation: RAT, LIVER, S-9, PHENOBARBITAL AND 5,6-BENZOFLAVONE, Method: SUSPENSION/PLATE inactive; negative | Test System: AMES SALMONELLA TYPHIMURIUM, Strain/Indicator: TA100, Metabolic Activation: NONE, Method: SUSPENSION/PLATE inactive; negative | Test System: AMES SALMONELLA TYPHIMURIUM, Strain/Indicator: TA100, Metabolic Activation: RAT, LIVER, S-9, PHENOBARBITAL AND 5,6-BENZOFLAVONE, Method: SUSPENSION/PLATE inactive; negative
